Five compounds from publication PMC4303146, “Investigation of cyanine dyes for in vivo optical imaging of altered mitochondrial membrane potential in tumors” (Cancer Medicine, 2014) can be followed below.

For data set [1], the system named is HeLa cells. Kind of data set: Cellular uptake study with uncoupler CCCP. It is filed as cell-based, human. The conditions noted are these: dye 1 μmol/L, 60 min, CCCP 0-25 μmol/L. How it is done: A cellular uptake study was conducted as reported previously. Briefly, the buffer solution (pH 7.4) for the cellular uptake study was composed of NaCl ([…]), KCl (5.4 mmol/L), CaCl2 (1.2 mmol/L), MgSO4 (0.8 mmol/L), NaH2PO4 (0.8 mmol/L), dextrose (5.6 mmol/L), and 4-(2-hydroxyethyl)-1-piperazineethanesulfonic acid) (5 mmol/L). HeLa cells (1 × 10^6 cells/mL buffer solution) were incubated with carbonyl […] m-chlorophenylhydrazone (CCCP; 0, 0.1, 0.25, 0.5, 0.75, 1, 2.5, 5, 10, and 25 μmol/L) for 5 min at 37°C in 1.5 mL microtubes, followed by the addition of the IC7-1 derivative (1 μmol/L final concentration). After a 60-min incubation with the IC7-1 derivative, the cells were washed twice and resuspended with buffer solution. The fluorescence intensity was measured following the excitation at 823 nm and the emission from 840 to 900 nm, and the normalized intensity (%) was calculated as a percentage of fluorescence intensity obtained with CCCP untreated (0 μmol/L) cells.
The buffer solution (pH 7.4) for the cellular uptake study was composed of NaCl (145 mM), KCl (5.4 mM), CaCl2 (1.2 mM), MgSO4 (0.8 mM), NaH2PO4 (0.8 mM), dextrose (5.6 mM), and HEPES (5 mM). The HeLa cells (1 x 10^6 cells / ml buffer solution) were incubated with an uncoupler (CCCP; 0, 0.1, 0.25, 0.5, 0.75, 1, 2.5, 5, 10, and 25 µM) for 5 min at 37 °C in 1.5 mL microtubes, followed by the addition of IR-780 or IC7-1-Bu (1 µM final concentration) After a 60 min incubation with the dyes, the cells were washed twice and resuspended with buffer solution. Fluorescence intensity was measured following the excitation at 763 nm and the emission from 780 to 880 nm for IR-780, and the excitation at 823 nm and the emission from 840 to 900 nm for IC7-1-Bu. The normalized intensity (%) was calculated as a percentage of fluorescence intensity obtained with CCCP untreated (0 µM) cells.

A short description of data set [2]: Photophysical properties (fluorescence spectroscopy, quantum yield). The class given is physicochemical. How it is done: IC7-1 derivatives were dissolved in chloroform or 5% FBS to give a concentration of 1 μmol/L for fluorescence spectroscopy analysis. Excitation spectra were measured following the emission at 850 nm, and emission spectra were measured following excitation at 823 nm. Quantum yields were determined using a Fluorolog-3 spectrofluorometer equipped with an integrating sphere.

Data set [3] concerns the target BSA (Bos taurus, UniProt P02769). Kind of data set: Association constants of IC7-1 derivatives to albumin (fluorimetric titration). The class given is binding, bovine. Conditions: dye 1 µM, BSA 0-1.0 µM, 30 min; read-out: Ka, association constant of dye-albumin complex (converted). The procedure:
Binding studies of IC7-1 derivatives to albumin were conducted as reported previously (Beckford G et al. The solvatochromic effects of side chain substitution on the binding interaction of novel tricarbocyanine dyes with human serum albumin. Talanta 2012;92: 45-52). Briefly, IC7-1 derivatives (1 µM final concentration) were incubated with BSA (0, 0.4, 0.6, 0.8, and 1.0 µM) for 30 min to equilibrate. The fluorescence intensity was measured following the excitation at 823 nm and the emission from 840 to 900 nm. The interaction between dye D and albumin A can be expressed by Eq. 1:
The association constant for the dye-albumin complex formation can be expressed by Eq. 2:
Then, the association constant Ka of the dye-albumin complex was calculated from the data for the fluorimetric titration of the dye with albumin using Eq. 3:
1/ΔF = 1/k[D] + (1/(k[D]Ka))·(1/[A]) (3)
where k is a constant depending on the instrumentation and quantum efficiency of the process.
Therefore, a plot of the reciprocal of ΔF versus the reciprocal of albumin concentration gives a straight line. The association constant was calculated by dividing the intercept by the slope of the line.

Data set [4] concerns HeLa cell xenograft. Put plainly: In vivo imaging study in HeLa cell xenograft mice. The conditions noted are these: for Tumor fluorescence intensity group from ROI analysis / Liver accumulation and excretion: 10 nmol i.v.; for Liver accumulation and excretion: ventral imaging 3-72 h. How it is done:
Animal experiments were conducted in accordance with institutional guidelines and were approved by the Kyoto University Animal Care Committee. […] HeLa cells (2 × 10^6 cells in 100 μL of PBS) were subcutaneously inoculated into the right hind legs of mice. Fourteen days after implantation, mice were used for the imaging study.
Clairvivo® OPT measurement and display software ver. 2.6.0.0. (SHIMADZU Co.) was used for imaging analysis.
Exposure time was 5s for the scan at 3 h, and 3s for the other scans. Clairvivo® OPT measurement and display software ver. 2.6.0.0. (SHIMADZU Co., Kyoto, Japan) was used for imaging analysis.

Data set [5] relates to HeLa cells. Put plainly: Cellular localization study (fluorescence microscopy with NAO mitochondria marker). The class given is cell-based, human. The conditions noted are these: 1 μmol/L, 60 min, NAO 100 nmol/L. How it is done:
HeLa cells (3 × 10^5 cells) were cultured in a poly-L-lysine coated glass bottom dish for 24 h at 37°C before use. Cells were washed twice with phosphate-buffered saline (PBS) and then incubated with the IC7-1 derivative dissolved in dimethyl sulfoxide (DMSO) (1 μmol/L final concentration) in DMEM supplemented with 5% FBS and 1% penicillin and streptomycin for 60 min. To determine the dye localization, mitochondria were labeled with NAO (100 nmol/L final concentration) for 20 min before completion of the incubation with IC7-1 derivative. Next, the cells were washed twice each with DMEM and PBS. Cells were viewed with a fluorescence microscope under a 100× oil-immersion objective lens. MetaMorph® software (Molecular Devices, LLC, Sunnyvale, CA) was used for imaging analysis.

For data set [6], the target named is T1, albumin-binding site I (warfarin-binding site) (Bos taurus, UniProt P02769).
T1 construct: incubated for 30 min in PBS (pH 7.4) containing 5% DMSO and 5% FBS; from tissue; host or cells: fetal bovine serum (5% in PBS)
Put plainly: Protein-binding assay with competitive inhibitors in 5% FBS. It is filed as in vitro ADME, bovine. Conditions: 5% FBS, inhibitor 189 μmol/L, dye 1 μmol/L. How it is done:
A protein-binding assay was conducted as reported previously. Briefly, warfarin, ibuprofen, digoxin, and quinidine were used as competitive inhibitors of albumin-binding sites I, II, III, and […], respectively. The inhibitors (0 and 189 μmol/L) were incubated for 30 min in PBS (pH 7.4) containing 5% DMSO and 5% FBS at room temperature. Immediately after the addition of the IC7-1 derivative (1 μmol/L final concentration), the fluorescence intensity was measured following the excitation at 823 nm and the emission from 840 to 900 nm. The normalized intensity (%) was calculated as a percentage of fluorescence intensity obtained from an inhibitor untreated sample.

Chain of BSA (P02769 25-607): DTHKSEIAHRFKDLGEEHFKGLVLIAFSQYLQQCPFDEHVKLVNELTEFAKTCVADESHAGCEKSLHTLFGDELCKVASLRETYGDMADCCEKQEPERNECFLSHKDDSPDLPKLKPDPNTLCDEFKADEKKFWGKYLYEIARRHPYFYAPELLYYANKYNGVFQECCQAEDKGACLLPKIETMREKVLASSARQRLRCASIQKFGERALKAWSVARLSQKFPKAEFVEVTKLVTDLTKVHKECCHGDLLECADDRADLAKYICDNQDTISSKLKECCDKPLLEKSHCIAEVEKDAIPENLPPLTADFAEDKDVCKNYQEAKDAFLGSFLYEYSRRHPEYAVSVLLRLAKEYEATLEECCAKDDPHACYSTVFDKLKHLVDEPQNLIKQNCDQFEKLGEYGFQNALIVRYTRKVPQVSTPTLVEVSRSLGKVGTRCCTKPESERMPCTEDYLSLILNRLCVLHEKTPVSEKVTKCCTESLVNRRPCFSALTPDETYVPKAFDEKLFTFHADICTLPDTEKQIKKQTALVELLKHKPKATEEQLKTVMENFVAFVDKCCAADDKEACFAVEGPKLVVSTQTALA
T1 sequence (P02769 25-607): as above

With `CCCCCCN1/C(=C/C=C2\CCCC(/C=C/C3=[N+](CCCCCC)c4ccc5ccccc5c4C3(C)C)=C2Cl)C(C)(C)c2c1ccc1ccccc21` [IC7-1-He, 3-Hexyl-2-(2-{3-[2-(3-hexyl-1,1-dimethyl-1,3-dihydro-benz[e]indol-2-ylidene)-ethylidene]-2-chloro-cyclohex-1-enyl}-vinyl)-1,1-dimethyl-1H-benz[e]indolium], the “Normalized cellular fluorescence intensity under CCCP treatment” value in data set [1] is listed as “reduced cellular fluorescence from treatment with a low CCCP concentration”. Besides, in data set [2] (5% FBS), the “Φ, quantum yield” value was determined as 0.03 and the “ε, extinction coefficient” value was 60000 mol/L/cm. For the same compound, in data set [2] (5% FBS, 1 μmol/L), the “emmax, maximum emission wavelength” value is 841 nm and the “exmax, maximum excitation wavelength” value is 823 nm. Besides, in data set [2] (CHCl3), the “Φ, quantum yield” value is reported as 0.06 and the “ε, extinction coefficient” value is 330000 mol/L/cm. For the same compound, in data set [2] (CHCl3, 1 μmol/L), the “emmax, maximum emission wavelength” value is listed as 845 nm and the “exmax, maximum excitation wavelength” value came to 823 nm. The Kd in data set [3] is 833 nM. The “Tumor fluorescence intensity group from ROI analysis” value (“Tumor fluorescence intensity group” below) in data set [4] was “negligible intensity group”. Besides, in data set [4] (10 nmol i.v., 24, 48 and 72 h), the “Fluorescence intensity at the tumor region” value is “weak at all time points” and the “Tumor depiction in fluorescence images” value is recorded as “negligible signals from the whole body”. Moreover, the “Subcellular localization of NIR fluorescence” value (shortened to “Subcellular localization”) in data set [5] is given as “weak or negligible fluorescence in the NIR region”.
For `CCN1/C(=C/C=C2\CCCC(/C=C/C3=[N+](CC)c4ccc5ccccc5c4C3(C)C)=C2Cl)C(C)(C)c2c1ccc1ccccc21` [IC7-1-Et, 3-Ethyl-2-(2-{3-[2-(3-ethyl-1,1-dimethyl-1,3-dihydro-benz[e]indol-2-ylidene)-ethylidene]-2-chloro-cyclohex-1-enyl}-vinyl)-1,1-dimethyl-1H-benz[e]indolium], in data set [2] (5% FBS), the “Φ, quantum yield” value is given as 0.04 and the “ε, extinction coefficient” value was determined as 130000 mol/L/cm. In data set [2] (5% FBS, 1 μmol/L), the “emmax, maximum emission wavelength” value is given as 847 nm and the “exmax, maximum excitation wavelength” value stood at 823 nm. For the same compound, in data set [2] (CHCl3), the “Φ, quantum yield” value is 0.06 and the “ε, extinction coefficient” value was 330000 mol/L/cm. Moreover, in data set [2] (CHCl3, 1 μmol/L), the “emmax, maximum emission wavelength” value worked out at 842 nm and the “exmax, maximum excitation wavelength” value was found to be 823 nm. Moreover, in data set [3], the Kd was 556 nM. Further, in data set [4], the “Tumor fluorescence intensity group” value is reported as “negligible intensity group”; the “Liver accumulation and excretion” value is “accumulated in the liver, and were quickly excreted”. The “Tumor depiction in fluorescence images” value in data set [4] (10 nmol i.v., 24, 48 and 72 h) is given as “negligible signals from the whole body”. The “Subcellular localization” value in data set [5] is given as “colocalized fluorescence with NAO”.
For `CN1/C(=C/C=C2\CCCC(/C=C/C3=[N+](C)c4ccc5ccccc5c4C3(C)C)=C2Cl)C(C)(C)c2c1ccc1ccccc21` [IC7-1-Me, 3-Methyl-2-(2-{3-[2-(3-methyl-1,1-dimethyl-1,3-dihydro-benz[e]indol-2-ylidene)-ethylidene]-2-chloro-cyclohex-1-enyl}-vinyl)-1,1-dimethyl-1H-benz[e]indolium], in data set [2] (5% FBS), the “Φ, quantum yield” value turned out to be 0.04 and the “ε, extinction coefficient” value is 120000 mol/L/cm. Besides, in data set [2] (5% FBS, 1 μmol/L), the “emmax, maximum emission wavelength” value stood at 846 nm and the “exmax, maximum excitation wavelength” value amounted to 823 nm. Besides, in data set [2] (CHCl3), the “Φ, quantum yield” value is 0.07 and the “ε, extinction coefficient” value amounted to 330000 mol/L/cm. Further, in data set [2] (CHCl3, 1 μmol/L), the “emmax, maximum emission wavelength” value is reported as 841 nm and the “exmax, maximum excitation wavelength” value was 823 nm. Further, in data set [3], the Kd is 769 nM. In data set [4], the “Tumor fluorescence intensity group” value is “negligible intensity group”; the “Liver accumulation and excretion” value is “accumulated in the liver, and were quickly excreted”. Moreover, the “Tumor depiction in fluorescence images” value in data set [4] (10 nmol i.v., 24, 48 and 72 h) was “negligible signals from the whole body”. Also, the “Subcellular localization” value in data set [5] is given as “colocalized fluorescence with NAO”.
As for `CCCN1/C(=C/C=C2\CCCC(/C=C/C3=[N+](CCC)c4ccc5ccccc5c4C3(C)C)=C2Cl)C(C)(C)c2c1ccc1ccccc21` [IC7-1-Pr, 3-Propyl-2-(2-{3-[2-(3-propyl-1,1-dimethyl-1,3-dihydro-benz[e]indol-2-ylidene)-ethylidene]-2-chloro-cyclohex-1-enyl}-vinyl)-1,1-dimethyl-1H-benz[e]indolium], the “Normalized cellular fluorescence intensity under CCCP treatment” value in data set [1] is given as “reduced cellular fluorescence from treatment with a low CCCP concentration”. Besides, in data set [2] (5% FBS), the “Φ, quantum yield” value is recorded as 0.05 and the “ε, extinction coefficient” value was found to be 130000 mol/L/cm. Also, in data set [2] (5% FBS, 1 μmol/L), the “emmax, maximum emission wavelength” value turned out to be 843 nm and the “exmax, maximum excitation wavelength” value was 823 nm. In data set [2] (CHCl3), the “Φ, quantum yield” value is 0.07 and the “ε, extinction coefficient” value was determined as 330000 mol/L/cm. In data set [2] (CHCl3, 1 μmol/L), the “emmax, maximum emission wavelength” value worked out at 845 nm and the “exmax, maximum excitation wavelength” value is 823 nm. Also, the Kd in data set [3] was 417 nM. Further, the “Tumor fluorescence intensity group” value in data set [4] is listed as “mild intensity group”. The “Tumor depiction in fluorescence images” value in data set [4] (10 nmol i.v., 24, 48 and 72 h) was “Tumors were clearly depicted”. Also, the “Subcellular localization” value in data set [5] is “colocalized fluorescence with NAO”. In addition, in data set [6], the “Normalized fluorescence intensity with warfarin (albumin site I inhibitor)” value was “specifically bound to albumin”.
On to `CCCN1/C(=C/C=C2\CCCC(/C=C/C3=[N+](CCC)c4ccccc4C3(C)C)=C2Cl)C(C)(C)c2ccccc21.[I-]` [IR-780, reference compound], for which the “Normalized cellular fluorescence intensity under CCCP treatment” value in data set [1] was “almost negligible effect of CCCP”.
